Test results taken from patent publication US11339130B1 (Blade Therapeutics, Inc., priority 2016, dated 2022).
Like-named read-outs stand apart in the source and are kept apart here.

Columns and labels:
Format in all cases: biochemical
[1] = target: T1, Human Calpain 9/NS1 (Homo sapiens, UniProt O14815); assay: Calpain inhibition continuous fluorescence (FRET) assay, Human Calpain 9/NS1; conditions: read-out: Human Calpain 9/NS1 IC50
T1 sequence (O14815 1-690): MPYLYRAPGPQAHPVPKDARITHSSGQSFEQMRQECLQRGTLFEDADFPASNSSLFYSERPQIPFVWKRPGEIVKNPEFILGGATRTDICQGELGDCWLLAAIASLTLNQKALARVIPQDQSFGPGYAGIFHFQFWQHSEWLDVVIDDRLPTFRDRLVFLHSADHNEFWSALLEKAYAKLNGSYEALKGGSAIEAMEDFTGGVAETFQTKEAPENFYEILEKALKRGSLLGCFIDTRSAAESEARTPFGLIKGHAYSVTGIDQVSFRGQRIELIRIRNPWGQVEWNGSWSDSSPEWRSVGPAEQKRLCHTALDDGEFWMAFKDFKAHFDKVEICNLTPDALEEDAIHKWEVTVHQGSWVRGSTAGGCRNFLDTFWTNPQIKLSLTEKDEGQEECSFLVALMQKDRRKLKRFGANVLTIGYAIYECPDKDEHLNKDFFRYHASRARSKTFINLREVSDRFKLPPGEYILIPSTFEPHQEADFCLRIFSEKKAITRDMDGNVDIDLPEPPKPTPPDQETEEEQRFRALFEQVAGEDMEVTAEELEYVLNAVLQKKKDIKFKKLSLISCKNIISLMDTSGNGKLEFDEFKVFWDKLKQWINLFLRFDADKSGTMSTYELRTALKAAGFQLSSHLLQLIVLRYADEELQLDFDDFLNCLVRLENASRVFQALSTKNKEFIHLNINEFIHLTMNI
T1 sequence (P04632 1-268 partner): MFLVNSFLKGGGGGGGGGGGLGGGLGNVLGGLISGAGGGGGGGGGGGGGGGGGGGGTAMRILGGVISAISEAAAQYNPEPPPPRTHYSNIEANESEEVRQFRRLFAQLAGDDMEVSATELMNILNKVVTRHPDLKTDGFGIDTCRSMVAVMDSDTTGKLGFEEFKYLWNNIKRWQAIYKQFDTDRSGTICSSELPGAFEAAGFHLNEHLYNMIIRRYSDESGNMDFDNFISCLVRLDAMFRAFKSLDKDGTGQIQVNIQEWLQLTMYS
In short: (§1)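 Calpain activity is measured kinetically with a quenched FRET peptide in 50 mM Tris pH 7.5, 100 mM NaCl, 1 mM DTT, with CaCl2 triggering activation. Rates over 1-5 min are plotted against log inhibitor to obtain IC50 by 4-parameter logistic fitting.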

[2] = target: T2, Human Calpain 1/NS1 (Homo sapiens, UniProt P07384); assay: Calpain inhibition continuous fluorescence (FRET) assay, Human Calpain 1/NS1; conditions: read-out: Human Calpain 1/NS1 IC50
T2 sequence (P07384 1-714): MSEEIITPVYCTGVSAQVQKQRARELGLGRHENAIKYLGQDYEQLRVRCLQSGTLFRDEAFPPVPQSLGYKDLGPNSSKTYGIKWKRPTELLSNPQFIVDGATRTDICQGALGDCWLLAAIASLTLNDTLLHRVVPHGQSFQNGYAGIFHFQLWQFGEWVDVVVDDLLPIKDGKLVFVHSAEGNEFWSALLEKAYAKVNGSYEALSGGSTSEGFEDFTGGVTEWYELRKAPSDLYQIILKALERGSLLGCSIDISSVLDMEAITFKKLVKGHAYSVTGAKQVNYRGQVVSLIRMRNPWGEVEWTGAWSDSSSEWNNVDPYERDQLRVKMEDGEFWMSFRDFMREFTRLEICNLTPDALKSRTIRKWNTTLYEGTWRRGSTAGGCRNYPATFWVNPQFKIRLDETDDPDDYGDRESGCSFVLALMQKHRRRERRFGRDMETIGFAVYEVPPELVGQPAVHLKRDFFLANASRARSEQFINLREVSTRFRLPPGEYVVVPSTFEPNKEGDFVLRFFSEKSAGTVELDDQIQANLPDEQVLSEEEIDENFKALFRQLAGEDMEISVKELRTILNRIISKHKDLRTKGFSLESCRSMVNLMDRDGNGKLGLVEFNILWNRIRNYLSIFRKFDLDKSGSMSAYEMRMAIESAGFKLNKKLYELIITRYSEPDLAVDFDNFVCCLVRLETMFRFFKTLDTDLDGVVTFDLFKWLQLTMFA
T2 sequence (P04632 1-268 partner): T1 sequence (P04632 1-268 partner)
In short: as §1

[3] = target: T3, Human Calpain 2/NS1 (Homo sapiens, UniProt P17655); assay: Calpain inhibition continuous fluorescence (FRET) assay, Human Calpain 2/NS1; conditions: read-out: Human Calpain 2/NS1 IC50
T3 sequence (P17655 1-700): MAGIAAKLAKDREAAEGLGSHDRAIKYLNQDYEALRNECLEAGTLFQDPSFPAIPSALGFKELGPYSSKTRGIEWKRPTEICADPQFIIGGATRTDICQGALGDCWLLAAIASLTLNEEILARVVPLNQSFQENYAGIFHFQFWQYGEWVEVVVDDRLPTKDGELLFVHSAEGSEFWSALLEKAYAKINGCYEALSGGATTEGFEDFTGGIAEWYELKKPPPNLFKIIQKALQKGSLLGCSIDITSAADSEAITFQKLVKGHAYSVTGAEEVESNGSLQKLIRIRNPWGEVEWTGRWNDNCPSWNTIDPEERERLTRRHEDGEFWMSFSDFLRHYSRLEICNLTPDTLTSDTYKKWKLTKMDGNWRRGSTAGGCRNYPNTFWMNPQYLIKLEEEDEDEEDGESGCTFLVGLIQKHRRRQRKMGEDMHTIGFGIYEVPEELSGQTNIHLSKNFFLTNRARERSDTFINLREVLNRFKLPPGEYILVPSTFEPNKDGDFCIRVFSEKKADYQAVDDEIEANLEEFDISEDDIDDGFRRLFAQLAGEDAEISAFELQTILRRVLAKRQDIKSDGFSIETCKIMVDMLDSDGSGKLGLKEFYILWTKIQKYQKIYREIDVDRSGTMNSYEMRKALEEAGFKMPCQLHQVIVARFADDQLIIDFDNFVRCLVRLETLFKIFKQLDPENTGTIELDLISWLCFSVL
T3 sequence (P04632 1-268 partner): T1 sequence (P04632 1-268 partner)
In short: as §1

O=C(NC1CC1)C(=O)[C@H](Cc1ccccc1)NC(=O)c1cncn1-c1n[nH]c2ccccc12 [Compound 51, (S)—N-(4-(cyclopropylamino)-3,4-dioxo-1-phenylbutan-2-yl)-1-(1H-indazol-3-yl)-1H-imidazole-5-carboxamide]
IC50 ([1]; Column C): > 10 µM | IC50 ([2]; Column A): 3 to 10 µM | IC50 ([3]; Column B): 3 to 10 µM

Cc1cc(C(=O)N[C@@H](Cc2ccccc2)C(=O)C(N)=O)n(-c2ccncc2)n1 [Compound 209, (S)—N-(4-amino-3,4-dioxo-1-phenylbutan-2-yl)-3-methyl-1-(pyridin-4-yl)-1H-pyrazole-5-carboxamide]
IC50 ([1]; Column C): < 3 µM | IC50 ([2]; Column A): < 3 µM | IC50 ([3]; Column B): < 3 µM

O=C[C@H](Cc1ccccc1)NC(=O)c1cncn1-c1ccn(-c2ccccc2)n1 [Compound 34, (S)—N-(1-oxo-3-phenylpropan-2-yl)-1-(1-phenyl-1H-pyrazol-3-yl)-1H-imidazole-5-carboxamide]
IC50 ([1]; Column C): < 3 µM | IC50 ([2]; Column A): < 3 µM | IC50 ([3]; Column B): < 3 µM

Cn1cc(C(=O)NC(Cc2ccccc2)C(=O)C(N)=O)c(-c2cccs2)n1 (stereo not drawn) [Compound 615, N-(4-amino-3,4-dioxo-1-phenylbutan-2-yl)-1-methyl-3-(thiophen-2-yl)-1H-pyrazole-4-carboxamide]
IC50 [1]: < 3 µM | IC50 [2]: < 3 µM | IC50 [3]: < 3 µM

O=C(NC1CC1)C(=O)[C@H](Cc1ccccc1)NC(=O)c1cncn1-c1ccc(-c2ccccc2)nn1 [Compound 201, (S)—N-(4-(cyclopropylamino)-3,4-dioxo-1-phenylbutan-2-yl)-1-(6-phenylpyridazin-3-yl)-1H-imidazole-5-carboxamide]
IC50 ([1]; Column C): 3 to 10 µM | IC50 ([2]; Column A): < 3 µM | IC50 ([3]; Column B): < 3 µM

Cn1ncc(C(=O)N[C@@H](Cc2ccccc2)C(=O)C(N)=O)c1-c1ccncc1 [Compound 165, (S)—N-(4-amino-3,4-dioxo-1-phenylbutan-2-yl)-1-methyl-5-(pyridin-4-yl)-1H-pyrazole-4-carboxamide]
IC50 ([1]; Column C): < 3 µM | IC50 ([2]; Column A): < 3 µM | IC50 ([3]; Column B): < 3 µM

NC(=O)C(=O)[C@H](Cc1ccccc1)NC(=O)c1conc1-c1ccccc1 [Compound 304, (S)—N-(4-amino-3,4-dioxo-1-phenylbutan-2-yl)-3-phenylisoxazole-4-carboxamide]
IC50 ([1]; Column C): < 3 µM | IC50 ([2]; Column A): < 3 µM | IC50 ([3]; Column B): < 3 µM

Cc1cc(C(=O)N[C@@H](Cc2ccccc2)C(=O)C(=O)NC2CC2)n(-c2cccc3ncccc23)n1 [Compound 78, (S)—N-(4-(cyclopropylamino)-3,4-dioxo-1-phenylbutan-2-yl)-3-methyl-1-(quinolin-5-yl)-1H-pyrazole-5-carboxamide]
IC50 ([1]; Column C): < 3 µM | IC50 ([2]; Column A): > 10 µM | IC50 ([3]; Column B): 3 to 10 µM

Cn1cc(C(=O)N[C@@H](Cc2ccccc2)C(=O)C(N)=O)c(Br)n1 [Compound 196, (S)—N-(4-amino-3,4-dioxo-1-phenylbutan-2-yl)-3-bromo-1-methyl-1H-pyrazole-4-carboxamide]
IC50 ([1]; Column C): 3 to 10 µM | IC50 ([2]; Column A): < 3 µM | IC50 ([3]; Column B): < 3 µM

O=C[C@H](Cc1ccccc1)NC(=O)[C@@H]1CCCN1c1nc2ccccc2o1 [Compound 4, (S)-1-(benzo[D]oxazol-2-yl)-N—((S)-1-oxo-3-phenylpropan-2-yl)pyrrolidine-2-carboxamide]
IC50 ([1]; Column C): < 3 µM | IC50 ([2]; Column A): < 3 µM | IC50 ([3]; Column B): < 3 µM

Cn1cc(C(=O)NC(Cc2ccccc2)C(=O)C(N)=O)c(-c2n[nH]c3ccccc23)n1 (stereo not drawn) [Compound 482, N-(4-amino-3,4-dioxo-1-phenylbutan-2-yl)-3-(1H-indazol-3-yl)-1-methyl-1H-pyrazole-4-carboxamide]
IC50 [1]: < 3 µM | IC50 [2]: 3 to 10 µM | IC50 [3]: 3 to 10 µM

NC(=O)C(=O)C(Cc1ccccc1)NC(=O)c1cnoc1Cc1ccccc1 (stereo not drawn) [Compound 491, N-(4-amino-3,4-dioxo-1-phenylbutan-2-yl)-5-benzylisoxazole-4-carboxamide]
IC50 [1]: 3 to 10 µM | IC50 [2]: < 3 µM | IC50 [3]: < 3 µM

Cc1ncc(C(=O)NC(Cc2ccccc2)C(=O)C(N)=O)n1-c1ccccc1 (stereo not drawn) [Compound 318, N-(4-amino-3,4-dioxo-1-phenylbutan-2-yl)-2-methyl-1-phenyl-1H-imidazole-5-carboxamide]
IC50 [1]: < 3 µM | IC50 [2]: < 3 µM | IC50 [3]: 3 to 10 µM

NC(=O)C(=O)[C@H](Cc1ccccc1)NC(=O)c1cncn1-c1ncc(-c2ccccc2)cn1 [Compound 74, (S)—N-(4-amino-3,4-dioxo-1-phenylbutan-2-yl)-1-(5-phenylpyrimidin-2-yl)-1H-imidazole-5-carboxamide]
IC50 ([1]; Column C): < 3 µM | IC50 ([2]; Column A): < 3 µM | IC50 ([3]; Column B): < 3 µM

Cc1cc(C(=O)N[C@@H](Cc2ccccc2)C(=O)C(=O)NC2CC2)n(-c2ccc(C(F)(F)F)cn2)n1 [Compound 122, (S)—N-(4-(cyclopropylamino)-3,4-dioxo-1-phenylbutan-2-yl)-3-methyl-1-(5-(trifluoromethyl)pyridin-2-yl)-1H-pyrazole-5-carboxamide]
IC50 ([1]; Column C): < 3 µM | IC50 ([2]; Column A): < 3 µM | IC50 ([3]; Column B): < 3 µM

O=C[C@H](Cc1ccccc1)NC(=O)c1cncn1-c1nc2ccccc2[nH]1 [Compound 90, (S)-1-(1H-benzo[d]imidazol-2-yl)-N-(1-oxo-3-phenylpropan-2-yl)-1H-imidazole-5-carboxamide]
IC50 ([1]; Column C): 3 to 10 µM | IC50 ([2]; Column A): < 3 µM | IC50 ([3]; Column B): < 3 µM

O=C(NC1CC1)C(=O)[C@H](Cc1ccccc1)NC(=O)c1cncn1-c1nc2ccccc2[nH]1 [Compound 71, (S)-1-(1H-benzo[d]imidazol-2-yl)-N-(4-(cyclopropylamino)-3,4-dioxo-1-phenylbutan-2-yl)-1H-imidazole-5-carboxamide]
IC50 ([1]; Column C): > 10 µM | IC50 ([2]; Column A): 3 to 10 µM | IC50 ([3]; Column B): 3 to 10 µM

Cn1nc(Br)c(C(=O)NC(Cc2ccccc2)C(=O)C(N)=O)c1Cl (stereo not drawn) [Compound 274, N-(4-amino-3,4-dioxo-1-phenylbutan-2-yl)-3-bromo-5-chloro-1-methyl-1H-pyrazole-4-carboxamide]
IC50 ([1]; Column C): < 3 µM | IC50 ([2]; Column A): < 3 µM | IC50 ([3]; Column B): < 3 µM
